Experimental data taken from patent US8536113B2, “EGFR binding peptides and uses thereof” (Janssen Biotech, Inc., priority 2006, dated 2013).

Columns and labels:
[1] = system: A431 cells; assay: Internalization of biotinylated P190 by FACS and confocal microscopy; format: cell-based, human; settings: 37° C.
Description: The complexes were added to A431 cells that had been pre-incubated in PBS with or without EGF for 15 minutes and then incubated for an additional hour. Cells were washed to remove unbound complexes and split into two separate tubes, one of which stayed at 4° C. and one of which was incubated for 2 hours at 37° C. to promote internalization. Again, cells were washed and further split into 2 groups with one tube from each temperature undergoing acid wash treatment to remove surface-bound biotinylated peptide. Cells were washed again in FACS staining buffer and peptide binding and internalization were acquired by FACSCalibur (BD, Franklin Lakes, N.J.) and analyzed by Cell Quest software. The remaining cells from both 4° C. and 37° C. without acid wash after FACS analysis were centrifuged and resuspended with 50 μL mounting medium containing DAPI (Vector Laboratory Inc. Burlingame, Calif.). Ten μL of cells in mounting medium were transferred to a glass slide, covered with thin glass slips and examined by confocal microscopy.

[2] = system: A431 cells; assay: Flow cytometry of phage binding to tumor cells; format: cell-based, human
Description: (§1) Flow cytometry. To evaluate whether the selected peptides from phage display can bind to tumor cells that overexpress EGFR, A431 cells (epidermoid cancer) or an EGFR negative tumor cells, MCF-7 (breast carcinoma) were tested in a flow cytometry assay using fluorescence detection (FACS). For P145, PP146 and their control phage, 2.5×10^5 A431 cells were resuspended in 25 μl of flow staining buffer (dPBS with 1% BSA, 0.09% sodium azide) and incubated with 25 μl of phage clones for 1 hour at 4° C. […] Cells were washed two times with flow staining buffer and then incubated with 0.5 μg of mouse anti M13/fd/F1 filamentous phages monoclonal antibody conjugated to FITC (Fitzgerald Industries International, Inc. Concord, Mass.) for 45 minutes at 4° C. Cells were washed two times with flow staining buffer and acquired by FACSCalibur (BD, Franklin Lakes, N.J.) to detect bound phages on tumor cell surface. Results.
(§2) A431 cells (epidermoid cancer) which overexpress EGFR and EGFR-negative tumor cells, MCF-7 (breast carcinoma) were tested in a flow cytometry assay. Tumor cells (A431 and MCF-7) were harvested with 0.25% tyrpsin-EDTA and washed twice with FACS staining buffer (dPBS with 1% BSA, 0.09% sodium azide). […] After binding at 4° C., cells were washed twice with FACS staining buffer to remove unbound phage and then incubated with 0.5 μg of mouse anti-M13 monoclonal antibody conjugated to FITC (Fitzgerald Industries International, Inc. Concord, Mass.) for 1 hour at 4° C. Mouse anti-M13-FITC incubated with cells without phage was used as background binding. Cells were washed twice with FACS staining buffer to remove unbound detection antibody.

[3] = target: T1, complex between EGF and sEGFR-MMB (Homo sapiens, UniProt P00533); assay: Phage ELISA binding studies on P190, receptor with added EGF; settings: Table 10; listed as pIX-190
T1 construct: made in house
Description: The plates were held overnight at room temperature, washed twice with TBST (0.5M Tris Base, 9% NaCl, 0.05% tween, pH 7.6), and loaded with 200 μL per well of Starting Block (Pierce). […] The plates were held at room temperature for 1.5 hours for blocking. Plates were then washed twice with TBST and phage were added. The phage solutions were crude phage supernatant from overnight cultures diluted four-fold with Starting Block. After a one-hour incubation, the plates were washed thrice with TBST and 100 μL of a 1:5000 dilution of phage binding antibody conjugate (α-M13-HRP) was added to the wells. EGF was added if applicable. After a one-hour incubation the plates were washed five times with TBST, 100 μL of POD (BM Chemiluminescence ELISA substrate; Roche Applied Science) was added, and chemiluminescence recorded.

[4] = system: MCF-7; assay: Flow cytometry of phage binding to EGFR negative tumor cells; format: cell-based, human; settings: EGFR positive versus EGFR negative cells
Description: as §1, §2

DPCTWEVWGRECLQ [P190]
internalization into EGFR^+ cells [1]: is internalized | phage binding to A431 cells in the presence of EGF [2]: increased | phage binding to A431 cells in the presence of EGF and cetuximab [2]: decreases | Binds EGF + SEGFR-MMB Complex [3]: increased in the presence of EGF or TGF-a | binding to A431 compared with MCF-7 [4]: bound more effectively to A431 cells | binding to A431 compared with MCF-7 ([4]; listed as pIII-190): bind to A431 but not to MCF-7 | binding to A431 compared with MCF-7 ([4]; listed as pIX-190): bind to A431 but not to MCF-7
